One test deals with TRPM7 (Mus musculus, UniProt Q923J1). The test is described as follows: Aequorin-based Ca2+ influx assay for TRPM7 inhibition. The test is classed as cell-based. Conditions: for Hill slopes for TRPM7 inhibition: Ca2+ influx assay, logistic equation fits, n = 3; for TRPM7 affinity compared to NS: relative to NS8593 (Figure 1C). The protocol:
HEK293T cells were transfected with 2 μg TRPM7 plasmid DNA and 0.1 μg pG5A plasmid DNA. After 24 h, the cells were washed with Mg^2+-free HEPES-buffered saline (HBS) containing 140 mM NaCl, 5.4 mM KCl, 0.5 mM CaCl2, 5 mM HEPES (pH 7.4), and 10 mM glucose and resuspended in Mg^2+-free HBS. After 30 min of incubation with 5 μM coelenterazine (Biaffin) at room temperature to reconstitute the aequorin, cells were washed two times by centrifugation at 2,000 rpm for 5 min (Heraeus Pico 17 microcentrifuge, Thermo Fisher Scientific). Then, they were resuspended in Mg^2+-free HBS and plated into 96-well plates. Luminescence was detected at room temperature using a CLARIOstar microplate reader (BMG Labtech). CaCl2-containing Mg^2+-free HBS was injected in the presence or absence of the inhibitors to increase the extracellular Ca^2+ concentration to 5 mM. Cell lysis with 0.1% (v/v) Triton X-100 in the Mg^2+-free HBS was used to terminate the experiment, and total bioluminescence was measured. The analysis of the bioluminescence rates (counts/s) was done in 1-s intervals and calibrated as [Ca^2+]i values using the following equation: p[Ca^2+]i=0,332588(−log(k))+5,5593 k represents the rate of aequorin consumption.
The following equation was used to determine the IC50 values of the inhibitors: E(c)=Emin+[…]/1+c^h/IC50^h
E(c) is the functional effect at the concentration c of the inhibitor, Emin is the minimal effect, Emax is the maximal effect, IC50 is the concentration of the inhibitor that produces the half-maximal effect, and h is the Hill coefficient. GraphPad Prism 8.4.0 was used for fitting.

The subject of another test is SK3 channels. The arrangement: method as in Sørensen et al. 22. Particulars: relative to NS8593 (Figure 1C); ref Sørensen et al. 22; cited from earlier work.
Test [1] relates to HuH7 cells. The test is described as follows: SA-β-Gal staining (cellular senescence) in HuH7 cells. It counts as cell-based. Conditions: HuH7 cells. As for the experimental part: Cellular senescence of treated cells was determined using the Senescence-β-galactosidase staining kit according to the manufacturer’s instructions (Cell Signaling Technology, Danvers, MA, USA). 300 cells were counted. The ratio stained to unstained cells were used to calculate the percentage of SA-β-gal-positive cells.

The subject of the next test is HuH6 cells. As to the kind of experiment: Cell proliferation assay (cell counting) in HuH6 cells. It counts as cell-based. As for the experimental part: (§1) Cells were seeded and counted every 24 h for 5 days by using a Neubauer counting chamber.
For the next test, the system named is SRF. As to the kind of experiment: SRF reporter gene (5×SRE-luciferase) assay. It counts as cell-based. Conditions: HuH7 cells, 24 h. As for the experimental part: HuH7 cells were seeded in a 12-well plate and transiently transfected with 0.25 μg 5×SRE and 0.15 μg Renilla luciferase simian virus 40 (SV40) promoter reporter as an internal control. The next day, cells were treated with inhibitors, as indicated in the figure legends, and the Dual-Luciferase Reporter Assay System (Promega, Madison, Wisconsin, USA) and the BioFix Lumi-10 (Macherey-Nagel, Düren, Germany) were used. The firefly luciferase activity was normalized to the Renilla luciferase activity to compensate for divergent transfection efficiencies.
A general note: In a reporter assay the amount or activity of a reporter protein is the signal.

Test [2] deals with HuH7 cells. The test is described as follows: Cell proliferation assay (cell counting) in HuH7 cells. It counts as cell-based. Conditions: for Inhibitory effects on HCC proliferation as compared to inhibitor 10: 10 μM, 5 days; for Concentration sufficient to cease HCC cell proliferation: titration 10, 7.5, 5, 2.5 μM. As for the experimental part: as §1
The test system of the next test is MRTF-A. The test is described as follows: Immunofluorescence of MRTF-A nuclear localization. It counts as cell-based. Particulars: HuH7 cells, 5 μM, 18 h. The protocol:
Cells were fixated by a 10-min incubation with 4% paraformaldehyde in PBS. To permeabilize the cells, 0.2% Triton X-100 in PBS was used. Blocking was done with 1% BSA in PBS for 30 min at 37°C, followed by incubation with the respective primary antibodies (Table S4) for 1 h at room temperature and the secondary Alexa Fluor 488-coupled antibody (Invitrogen) (Table S5). The nucleus was stained with DAPI (Sigma-Aldrich). Images were taken using a fluorescence microscope (Nikon).

Here are results for 11 molecules from publication PMC11387234, “Identification of novel inhibitors of the transcriptional coactivator MRTF-A for HCC therapy” (Molecular Therapy Oncology, 2024).

Chain of TRPM7 (Q923J1 whole entry): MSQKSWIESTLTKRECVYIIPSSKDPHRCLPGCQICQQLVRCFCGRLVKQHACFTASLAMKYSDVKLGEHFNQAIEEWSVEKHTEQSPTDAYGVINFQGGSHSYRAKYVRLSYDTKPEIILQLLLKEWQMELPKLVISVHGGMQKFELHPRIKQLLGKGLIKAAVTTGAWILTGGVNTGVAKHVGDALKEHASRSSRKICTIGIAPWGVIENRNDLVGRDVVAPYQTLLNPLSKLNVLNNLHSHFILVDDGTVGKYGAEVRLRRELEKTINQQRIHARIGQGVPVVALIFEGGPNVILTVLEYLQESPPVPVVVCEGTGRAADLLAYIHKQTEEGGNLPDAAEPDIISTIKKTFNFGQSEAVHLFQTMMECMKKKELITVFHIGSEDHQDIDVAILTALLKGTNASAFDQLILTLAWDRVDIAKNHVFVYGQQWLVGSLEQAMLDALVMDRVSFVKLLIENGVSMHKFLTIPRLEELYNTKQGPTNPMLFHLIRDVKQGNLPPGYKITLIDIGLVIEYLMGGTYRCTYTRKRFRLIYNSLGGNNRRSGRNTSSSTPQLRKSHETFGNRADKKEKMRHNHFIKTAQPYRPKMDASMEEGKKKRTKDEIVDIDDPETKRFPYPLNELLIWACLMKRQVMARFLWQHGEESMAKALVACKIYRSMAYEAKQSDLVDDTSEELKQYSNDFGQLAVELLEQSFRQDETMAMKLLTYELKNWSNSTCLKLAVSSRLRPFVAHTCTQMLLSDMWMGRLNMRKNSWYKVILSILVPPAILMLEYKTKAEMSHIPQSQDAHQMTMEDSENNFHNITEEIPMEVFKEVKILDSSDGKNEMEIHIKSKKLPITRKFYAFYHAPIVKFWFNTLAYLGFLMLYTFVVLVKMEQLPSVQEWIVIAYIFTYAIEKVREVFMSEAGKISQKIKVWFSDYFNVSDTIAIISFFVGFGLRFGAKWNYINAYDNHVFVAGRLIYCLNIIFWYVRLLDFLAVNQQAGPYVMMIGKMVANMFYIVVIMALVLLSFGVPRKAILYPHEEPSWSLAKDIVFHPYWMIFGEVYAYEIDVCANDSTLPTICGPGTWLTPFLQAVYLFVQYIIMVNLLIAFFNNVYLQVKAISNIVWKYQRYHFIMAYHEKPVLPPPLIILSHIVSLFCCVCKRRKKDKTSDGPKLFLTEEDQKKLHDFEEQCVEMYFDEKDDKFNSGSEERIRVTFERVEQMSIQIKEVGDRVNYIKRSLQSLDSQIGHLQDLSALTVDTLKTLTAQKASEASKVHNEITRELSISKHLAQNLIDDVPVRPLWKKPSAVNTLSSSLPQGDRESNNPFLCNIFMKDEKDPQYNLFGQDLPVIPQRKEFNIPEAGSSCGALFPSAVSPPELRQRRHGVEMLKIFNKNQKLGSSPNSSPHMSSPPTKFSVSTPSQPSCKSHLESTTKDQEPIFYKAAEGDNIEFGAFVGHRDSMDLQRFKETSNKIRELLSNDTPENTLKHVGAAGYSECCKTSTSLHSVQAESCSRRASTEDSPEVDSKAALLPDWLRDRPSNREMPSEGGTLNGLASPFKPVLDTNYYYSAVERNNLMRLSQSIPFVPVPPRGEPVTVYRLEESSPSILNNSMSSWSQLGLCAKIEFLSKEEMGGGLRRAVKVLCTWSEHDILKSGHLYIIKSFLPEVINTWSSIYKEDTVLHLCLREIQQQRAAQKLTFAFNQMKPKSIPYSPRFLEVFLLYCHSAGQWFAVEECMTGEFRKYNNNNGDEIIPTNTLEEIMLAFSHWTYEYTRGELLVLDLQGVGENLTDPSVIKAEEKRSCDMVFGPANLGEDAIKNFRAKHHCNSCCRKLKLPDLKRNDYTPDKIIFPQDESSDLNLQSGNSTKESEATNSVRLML

As for `Clc1cc2c(cc1Cl)C(Nc1nc3ccccc3[nH]1)CCC2` (stereo not drawn) [compound 6], at TRPM7, the “Hill slopes for TRPM7 inhibition” value was -1.292 and the “TRPM7 affinity compared to NS” value is given as “=NS”. Further, the “SK3 affinity compared to NS” value in the test with SK3 channels is “>NS”.
As for `Fc1cccc(-c2cccc(Nc3nc4ccccc4[nH]3)c2)c1` [compound 16], in the test on HuH7 cells [1], the “Concentration that significantly increases SA-β-Gal-positive cells (senescence induction)” value was 2.5 µM. The “Effect on cell proliferation” value in the test on HuH6 cells (10 µM (Figure S5A)) is listed as “proliferation arrest”. Also, in the test on SRF, the “Concentration at which SRF activity is significantly reduced” value is 2.5 µM. The “Effect on cell proliferation” value in the test with HuH7 cells [2] (10 μM (Figure 6C)) is listed as “proliferation arrest”. Also, in the test with HuH7 cells [2], the “Inhibitory effects on HCC proliferation as compared to inhibitor 10” value was “significantly improved” and the “Concentration sufficient to cease HCC cell proliferation” value amounted to 2.5 µM.
With `c1ccc2[nH]c(NC3CCCc4ccncc43)nc2c1` (stereo not drawn) [compound 7], the “Effect on cell proliferation” value in the test with HuH6 cells (30 µM NS8593, 2, 3, 7, 8, 10 µM 4, 5, 6, 5 days) is given as “decreased cell proliferation only marginally”. Also, at TRPM7, the “Hill slopes for TRPM7 inhibition” value was -0.9579 and the “TRPM7 affinity compared to NS” value is on record as “<NS”. The “SK3 affinity compared to NS” value in the test with SK3 channels was “<NS”. Further, the “Effect on cell proliferation” value in the test with HuH7 cells [2] (30 μM NS, rNS, 2, 3, 7, 8, 10 μM 4, 5, 6, 5 days) is given as “decreased cell proliferation only marginally”.
In the case of `CC(C)c1ccc(-c2cccc(Nc3nc4ccccc4[nH]3)c2)cc1` [compound 14], the “Effect on cell proliferation” value with HuH6 cells (10 µM (Figure S5A)) and in the test on HuH7 cells [2] (10 μM (Figure 6C)) was “proliferation arrest” throughout. The “Concentration at which SRF activity is significantly reduced” value in the test with SRF was 2.5 µM. In addition, the “Inhibitory effects on HCC proliferation as compared to inhibitor 10” value in the test with HuH7 cells [2] was “significantly improved”. In the test with HuH7 cells [2], the “Concentration sufficient to cease HCC cell proliferation” value is 2.5 µM.
Take `Cc1ccc2c(c1)C(Nc1nc3ccccc3[nH]1)CCC2` (stereo not drawn) [compound 4]: on TRPM7, the “Hill slopes for TRPM7 inhibition” value was -1.123 and the “TRPM7 affinity compared to NS” value is “<NS”. Moreover, the “SK3 affinity compared to NS” value in the test with SK3 channels is listed as “>NS”.
As for `Fc1ccc2c(c1)C(Nc1nc3ccccc3[nH]1)CCC2` (stereo not drawn) [compound 2], on TRPM7, the “Hill slopes for TRPM7 inhibition” value is recorded as -1.165 and the “TRPM7 affinity compared to NS” value was “<NS”. Further, the “SK3 affinity compared to NS” value in the test with SK3 channels is given as “>NS”.
`c1ccc(-c2cccc(Nc3nc4ccccc4[nH]3)c2)cc1` [compound 10]: the “Localization of endogenous MRTF-A” value with MRTF-A was “cytoplasmic”. In the test on SRF (10 μM), the “SRF activity decreased to” value worked out at 25%.
`c1ccc2c(c1)CCCC2Nc1nc2ccccc2[nH]1` (stereo not drawn) [NS8593, reference compound]: the “Hill slopes for TRPM7 inhibition” value at TRPM7 is listed as -1.432.
Turning to `c1ccc(-c2ccccc2Nc2nc3ccccc3[nH]2)cc1` [compound 9], the “SRF reporter gene activity” value in the test on SRF (10 μM) is on record as “remained largely unchanged”.
Regarding `Fc1ccc(-c2ccccc2Nc2nc3ccccc3[nH]2)cc1` [compound 13], the “SRF reporter gene activity” value with SRF (10 μM) is “remained largely unchanged”.
Regarding `COc1ccc2c(c1)C(Nc1nc3ccccc3[nH]1)CCC2` (stereo not drawn) [compound 3], on TRPM7, the “Hill slopes for TRPM7 inhibition” value is given as -1.224 and the “TRPM7 affinity compared to NS” value is reported as “<NS”. For the same molecule, the “SK3 affinity compared to NS” value in the test with SK3 channels was “=NS”.
